molecular target: T1, P70S6K (T412E mutant, Millipore) (Homo sapiens, UniProt P23443, T412E); test: p70S6K enzyme assay; type: biochemical; details: class symbol; 3 nM P70S6K, 24 μM ATP; read-out: IC50 (p70S6K)
T1 construct: purchased Millipore
Description: P70S6K inhibitor compounds are diluted and plated in 96 well plates. A reaction mixture including the following components is then added to the compound plate to initiate the enzyme reaction; P70S6K (3 nM, T412E mutant, Millipore) is mixed with 24 μM ATP in an assay buffer containing 100 mM Hepes (pH 7.5), 5 mM MgCl2, 1 mM DTT, 0.015% Brij and 1 μM of the substrate peptide FITC-AHA-AKRRRLSSLRA-OH (derived from the S6 ribosomal protein sequence, FITC=fluorescein isothiocyanate, AHA=6-aminohexanoic acid). The reaction is incubated for 90 min at 25° C., before the addition of 10 mM EDTA to stop the reaction. The proportion of substrate and product (phosphorylated) peptide is analysed on a Caliper Life Sciences Lab Chip 3000, using a pressure of −1.4 psi, and upstream and downstream voltages of −3000 and −700 respectively. Product peaks are resolved before substrate peaks on the resulting chromatograms.

T1 sequence (P23443 whole entry T412E): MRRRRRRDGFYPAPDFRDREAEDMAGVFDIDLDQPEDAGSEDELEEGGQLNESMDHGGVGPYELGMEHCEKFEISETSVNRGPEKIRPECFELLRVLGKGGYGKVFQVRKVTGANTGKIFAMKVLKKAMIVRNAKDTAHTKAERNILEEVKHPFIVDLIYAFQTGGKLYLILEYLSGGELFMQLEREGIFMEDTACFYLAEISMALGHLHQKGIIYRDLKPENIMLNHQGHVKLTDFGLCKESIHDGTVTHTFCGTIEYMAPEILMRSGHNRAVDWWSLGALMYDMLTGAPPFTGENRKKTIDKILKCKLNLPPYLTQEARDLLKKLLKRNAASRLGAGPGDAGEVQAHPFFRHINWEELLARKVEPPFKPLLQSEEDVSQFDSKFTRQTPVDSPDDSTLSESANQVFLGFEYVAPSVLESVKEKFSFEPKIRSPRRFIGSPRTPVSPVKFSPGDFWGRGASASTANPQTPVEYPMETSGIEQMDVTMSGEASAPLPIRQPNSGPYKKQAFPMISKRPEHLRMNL

IC50 | SMILES
100 to 1000 nM | Cc1cccc(CN(CCNC(=O)c2sccc2Nc2ccnc3[nH]ccc23)Cc2cccc(C)c2)c1 [Example 55, 3-(1H-Pyrrolo[2,3-b]pyridin-4-ylamino)-thiophene-2-carboxylic acid {2-[bis-(3-methyl-benzyl)-amino]-ethyl}-amide]
< 100 nM | Cc1cccc(CNCCNC(=O)c2sccc2Nc2ccnc3[nH]ccc23)c1 [Example 56, 3-(1H-Pyrrolo[2,3-b]pyridin-4-ylamino)-thiophene-2-carboxylic acid [2-(3-methyl-benzylamino)-ethyl]-amide]
< 100 nM | O=C(NCCNCc1ccccc1F)c1sccc1Nc1ccnc2[nH]ccc12 [Example 58, 3-(1H-Pyrrolo[2,3-b]pyridin-4-ylamino)-thiophene-2-carboxylic acid [2-(2-fluoro-benzylamino)-ethyl]-amide]
< 100 nM | O=C(NCCNCc1ccc2[nH]ccc2c1)c1sccc1Nc1ccnc2[nH]ccc12 [Example 59, 3-(1H-Pyrrolo[2,3-b]pyridin-4-ylamino)-thiophene-2-carboxylic acid {2-[(1H-indol-5-ylmethyl)-amino]-ethyl}-amide]
< 100 nM | COc1ccccc1CNCCNC(=O)c1sccc1Nc1ccnc2[nH]ccc12 [Example 60, 3-(1H-Pyrrolo[2,3-b]pyridin-4-ylamino)-thiophene-2-carboxylic acid [2-(2-methoxy-benzylamino)-ethyl]-amide]
100 to 1000 nM | O=C(NCCNCc1cccnc1)c1sccc1Nc1ccnc2[nH]ccc12 [Example 61, 3-(1H-Pyrrolo[2,3-b]pyridin-4-ylamino)-thiophene-2-carboxylic acid {2-[(pyridin-3-ylmethyl)-amino]-ethyl}-amide]
< 100 nM | O=C(NCCNCc1ccc(F)cc1)c1sccc1Nc1ccnc2[nH]ccc12 [Example 62, 3-(1H-Pyrrolo[2,3-b]pyridin-4-ylamino)-thiophene-2-carboxylic acid [2-(4-fluoro-benzylamino)-ethyl]-amide]
< 100 nM | O=C(NCCNCc1ccc(F)c(Cl)c1)c1sccc1Nc1ccnc2[nH]ccc12 [Example 63, 3-(1H-Pyrrolo[2,3-b]pyridin-4-ylamino)-thiophene-2-carboxylic acid [2-(3-chloro-4-fluoro-benzylamino)-ethyl]-amide]
1000 to 10000 nM | NC1CCN(C(=O)c2sccc2Nc2ccnc3[nH]ccc23)CC1 [Example 64, (4-Amino-piperidin-1-yl)-[3-(1H-pyrrolo[2,3-b]pyridin-4-ylamino)-thiophen-2-yl]-methanone]
1000 to 10000 nM | O=C(c1sccc1Nc1ccnc2[nH]ccc12)N1CCC(NCc2ccccc2)CC1 [Example 65, (4-Benzylamino-piperidin-1-yl)-[3-(1H-pyrrolo[2,3-b]pyridin-4-ylamino)-thiophen-2-yl]-methanone]
100 to 1000 nM | O=C(NCCSCc1ccccc1)c1sccc1Nc1ccnc2[nH]ccc12 [Example 66, 3-(1H-Pyrrolo[2,3-b]pyridin-4-ylamino)-thiophene-2-carboxylic acid (2-benzylsulfanyl-ethyl)-amide]
100 to 1000 nM | NCCCNC(=O)c1sccc1Nc1ccnc2[nH]ccc12 [Example 67, 3-(1H-Pyrrolo[2,3-b]pyridin-4-ylamino)-thiophene-2-carboxylic acid (3-amino-propyl)-amide]
< 100 nM | O=C(NCCOCc1ccccc1)c1sccc1Nc1ccnc2[nH]ccc12 [Example 68, 3-(1H-Pyrrolo[2,3-b]pyridin-4-ylamino)-thiophene-2-carboxylic acid (2-benzyloxy-ethyl)-amide]
100 to 1000 nM | O=C(NCCS(=O)(=O)Cc1ccccc1)c1sccc1Nc1ccnc2[nH]ccc12 [Example 69, 3-(1H-Pyrrolo[2,3-b]pyridin-4-ylamino)-thiophene-2-carboxylic acid (2-phenylmethanesulfonyl-ethyl)-amide]
< 100 nM | O=C(NCCNC(=O)c1sccc1Nc1ccnc2[nH]ccc12)c1ccccc1 [Example 70, 3-(1H-Pyrrolo[2,3-b]pyridin-4-ylamino)-thiophene-2-carboxylic acid (2-benzoylamino-ethyl)-amide]
100 to 1000 nM | O=C(NCCNS(=O)(=O)c1ccccc1)c1sccc1Nc1ccnc2[nH]ccc12 [Example 71, 3-(1H-Pyrrolo[2,3-b]pyridin-4-ylamino)-thiophene-2-carboxylic acid (2-benzenesulfonylamino-ethyl)-amide]
< 100 nM | O=C(NCCNCc1ccccc1)c1ccsc1Nc1ccnc2[nH]ccc12 [Example 72, 2-(1H-Pyrrolo[2,3-b]pyridin-4-ylamino)-thiophene-3-carboxylic acid (2-benzylamino-ethyl)-amide]

The next lines start with the molecule.

SMILES | IC50
O=C(Nc1ccc(Cl)cc1)c1sccc1Nc1ccnc2[nH]ccc12 [Example 35, 3-(1H-Pyrrolo[2,3-b]pyridin-4-ylamino)-thiophene-2-carboxylic acid (4-chloro-phenyl)-amide] | < 100 nM
COc1ccc(NC(=O)c2sccc2Nc2ccnc3[nH]ccc23)cc1 [Example 36, 3-(1H-Pyrrolo[2,3-b]pyridin-4-ylamino)-thiophene-2-carboxylic acid (4-methoxy-phenyl)-amide] | < 100 nM
O=C(Nc1ccc(F)cc1)c1sccc1Nc1ccnc2[nH]ccc12 [Example 37, 3-(1H-Pyrrolo[2,3-b]pyridin-4-ylamino)-thiophene-2-carboxylic acid (4-fluoro-phenyl)-amide] | < 100 nM
COc1cccc(NC(=O)c2sccc2Nc2ccnc3[nH]ccc23)c1 [Example 39, 3-(1H-Pyrrolo[2,3-b]pyridin-4-ylamino)-thiophene-2-carboxylic acid (3-methoxy-phenyl)-amide] | 100 to 1000 nM
COc1ccc(CNCCNC(=O)c2sccc2Nc2ccnc3[nH]ccc23)cc1 [Example 40, 3-(1H-Pyrrolo[2,3-b]pyridin-4-ylamino)-thiophene-2-carboxylic acid [2-(4-methoxy-benzylamino)-ethyl]-amide] | < 100 nM
O=C(NCCNCc1ccccn1)c1sccc1Nc1ccnc2[nH]ccc12 [Example 41, 3-(1H-Pyrrolo[2,3-b]pyridin-4-ylamino)-thiophene-2-carboxylic acid {2-[(pyridin-2-ylmethyl)-amino]-ethyl}-amide] | < 100 nM
NCCNC(=O)c1sccc1Nc1ccnc2[nH]ccc12 [Example 42, 3-(1H-Pyrrolo[2,3-b]pyridin-4-ylamino)-thiophene-2-carboxylic acid (2-amino-ethyl)-amide] | < 100 nM
O=C(N[C@@H](CO)c1ccccc1)c1sccc1Nc1ccnc2[nH]ccc12 [Example 43, R-[3-(1H-Pyrrolo[2,3-b]pyridin-4-ylamino)-thiophene-2-carboxylic acid (2-hydroxy-1-phenyl-ethyl)-amide]] | 1000 to 10000 nM
O=C(N[C@H](CO)c1ccccc1)c1sccc1Nc1ccnc2[nH]ccc12 [Example 44, S-[3-(1H-Pyrrolo[2,3-b]pyridin-4-ylamino)-thiophene-2-carboxylic acid (2-hydroxy-1-phenyl-ethyl)-amide]] | < 100 nM
CC(=O)N(CCNC(=O)c1sccc1Nc1ccnc2[nH]ccc12)Cc1ccccc1 [Example 45, 3-(1H-Pyrrolo[2,3-b]pyridin-4-ylamino)-thiophene-2-carboxylic acid [2-(acetyl-benzyl-amino)-ethyl]-amide] | 100 to 1000 nM
O=C(NCCNCc1ccsc1)c1sccc1Nc1ccnc2[nH]ccc12 [Example 46, 3-(1H-Pyrrolo[2,3-b]pyridin-4-ylamino)-thiophene-2-carboxylic acid {2-[(thiophen-3-ylmethyl)-amino]-ethyl}-amide] | < 100 nM
O=C(NCCN(Cc1ccoc1)Cc1ccoc1)c1sccc1Nc1ccnc2[nH]ccc12 [Example 47, 3-(1H-Pyrrolo[2,3-b]pyridin-4-ylamino)-thiophene-2-carboxylic acid [2-(bis-furan-3-ylmethyl-amino)-ethyl]-amide] | < 100 nM
O=C(NCCNCc1ccccc1OC(F)(F)F)c1sccc1Nc1ccnc2[nH]ccc12 [Example 48, 3-(1H-Pyrrolo[2,3-b]pyridin-4-ylamino)-thiophene-2-carboxylic acid [2-(2-trifluoromethoxy-benzylamino)-ethyl]amide] | < 100 nM
COc1cccc(CNCCNC(=O)c2sccc2Nc2ccnc3[nH]ccc23)c1 [Example 49, 3-(1H-Pyrrolo[2,3-b]pyridin-4-ylamino)-thiophene-2-carboxylic acid [2-(3-methoxy-benzylamino)-ethyl]-amide] | < 100 nM
O=C(NCCNCc1cccc(OC(F)(F)F)c1)c1sccc1Nc1ccnc2[nH]ccc12 [Example 50, 3-(1H-Pyrrolo[2,3-b]pyridin-4-ylamino)-thiophene-2-carboxylic acid [2-(3-trifluoromethoxy-benzylamino)-ethyl]-amide] | < 100 nM
O=C(NCCNCc1ccc(OC(F)(F)F)cc1)c1sccc1Nc1ccnc2[nH]ccc12 [Example 51, 3-(1H-Pyrrolo[2,3-b]pyridin-4-ylamino)-thiophene-2-carboxylic acid [2-(4-trifluoromethoxy-benzylamino)-ethyl]-amide] | < 100 nM
O=C(NCCNCc1ccc(C(F)(F)F)cc1)c1sccc1Nc1ccnc2[nH]ccc12 [Example 52, 3-(1H-Pyrrolo[2,3-b]pyridin-4-ylamino)-thiophene-2-carboxylic acid [2-(4-trifluoromethyl-benzylamino)-ethyl]-amide] | < 100 nM
O=C(NCCNCc1ccoc1)c1sccc1Nc1ccnc2[nH]ccc12 [Example 53, 3-(1H-Pyrrolo[2,3-b]pyridin-4-ylamino)-thiophene-2-carboxylic acid {2-[(furan-3-ylmethyl)-amino]-ethyl}-amide] | < 100 nM

Source: patent US9023847B2, “Azaheterocyclic compounds” (Merck Patent GmbH, priority 2009, dated 2015)
